Test results reported in patent US12486233B2 (Exelixis, Inc., priority 2014, dated 2025).
Values belong to the compound of their own block, whether it stands above or below them.

What was measured:
[1] = Dynamic Vapor Sorption (DVS): hygroscopicity and sorption properties; assay type: physicochemical; conditions: for hygroscopicity classification: 25° C., European Pharmacopeia classification where stated
Experimental: Dynamic Vapor Sorption (DVS) was performed using a Hiden Analytical Instruments IGAsorp Vapor Sorption Balance. Approximately 30 mg of sample was placed into a wire-mesh Vapor sorption balance pan, loaded into the IGAsorp Vapor sorption balance and held at 25° C.±0.1° C. The sample was subjected to a step profile from 0 to 90% RH at 10% increments, followed by desorption from 80% RH to 0% RH at 10% increments. The equilibrium criterion was set to 99.0% step completion within a minimum of […] and a maximum of 5 hours for each increment. The weight change during the sorption cycle was monitored, allowing for the hygroscopic nature of the sample to be determined. The data collection interval was in seconds.

[2] = permeability (BCS classification) in initial development experiments; assay type: in vitro ADME; conditions: free base
[3] = BCS classification / solubility in initial development experiments; assay type: physicochemical; conditions: free base; in water
[4] = physical stability of amorphous material under stress conditions (temperature, relative humidity); assay type: physicochemical; conditions: 100° C. for 4 days

weight gain between 0% RH and 80% RH (in words) ([1]; DVS): very small weight gain
hygroscopicity classification ([1]; DVS): non-hygroscopic
Structure (SMILES): COc1cc2nccc(Oc3ccc(NC(=O)C4(C(=O)Nc5ccc(F)cc5)CC4)cc3)c2cc1OC [Compound 1 Form XXVIII, N-{4-[(6,7-dimethoxyquinolin-4-yl)oxy]phenyl}-N′-(4-fluorophenyl) cyclopropane-1,1-dicarboxamide]

weight gain between 40% RH and 90% RH ([1]; DVS): very small weight gain
hygroscopicity classification ([1]; DVS): non-hygroscopic
stability at higher humidity ([1]; DVS, 40% RH to 90% RH): stable
Structure (SMILES): COc1cc2nccc(Oc3ccc(NC(=O)C4(C(=O)Nc5ccc(F)cc5)CC4)cc3)c2cc1OC [Compound 1 Form I, N-{4-[(6,7-dimethoxyquinolin-4-yl)oxy]phenyl}-N′-(4-fluorophenyl) cyclopropane-1,1-dicarboxamide]

permeability [2]: high permeability
solubility [3]: low solubility
Structure (SMILES): COc1cc2nccc(Oc3ccc(NC(=O)C4(C(=O)Nc5ccc(F)cc5)CC4)cc3)c2cc1OC [Compound 1, N-{4-[(6,7-dimethoxyquinolin-4-yl)oxy]phenyl}-N′-(4-fluorophenyl) cyclopropane-1,1-dicarboxamide]

water uptake at 90% RH ([1]; DVS): approximately 5%
hygroscopicity classification ([1]; DVS): hygroscopic
total weight gain between 0% RH and 80% RH ([1]; DVS, sample dried at 0% RH first): 4 % w/w
crystallization by XRPD of the sample post DVS ([1]; after the DVS cycle): no crystallization had occurred
physical stability to heat stressing [4]: stable
Structure (SMILES): COc1cc2nccc(Oc3ccc(NC(=O)C4(C(=O)Nc5ccc(F)cc5)CC4)cc3)c2cc1OC [Compound 1 Amorphous Form, N-{4-[(6,7-dimethoxyquinolin-4-yl)oxy]phenyl}-N′-(4-fluorophenyl) cyclopropane-1,1-dicarboxamide]

hygroscopicity classification ([1]; DVS): hygroscopic
Structure (SMILES): COc1cc2nccc(Oc3ccc(NC(=O)C4(C(=O)Nc5ccc(F)cc5)CC4)cc3)c2cc1OC [Compound 1 Form XXX, N-{4-[(6,7-dimethoxyquinolin-4-yl)oxy]phenyl}-N′-(4-fluorophenyl) cyclopropane-1,1-dicarboxamide]

weight lost on drying to 0% RH ([1]; DVS, sample dried at 0% RH before sorption and desorption): −7%
Structure (SMILES): COc1cc2nccc(Oc3ccc(NC(=O)C4(C(=O)Nc5ccc(F)cc5)CC4)cc3)c2cc1OC [Compound 1 Form XXXI, N-{4-[(6,7-dimethoxyquinolin-4-yl)oxy]phenyl}-N′-(4-fluorophenyl) cyclopropane-1,1-dicarboxamide]

weight gain between 0% RH and 80% RH (in words) ([1]; DVS): very small weight gain
hygroscopicity classification ([1]; DVS): non-hygroscopic
Structure (SMILES): COc1cc2nccc(Oc3ccc(NC(=O)C4(C(=O)Nc5ccc(F)cc5)CC4)cc3)c2cc1OC [Compound 1 Form III, N-{4-[(6,7-dimethoxyquinolin-4-yl)oxy]phenyl}-N′-(4-fluorophenyl) cyclopropane-1,1-dicarboxamide]
